Patent publication US8889411B2, “Modulation of stem and progenitor cell differentiation, assays, and uses thereof” (Anthrogenesis Corporation, priority 2002, dated 2014)

Experiments:
[1] = system: CD1a+CD14− and CD1a−CD14+ cells (DC progenitors); assay: Detection of apoptosis (Annexin V-FITC / propidium iodide) in isolated DC progenitors; type: cell-based, human; conditions: 1 μM; 2 days; GM-CSF and TNF-α
Procedure: Detection of apoptosis: Phosphatidyl serine exposure was determined using Annexin V-FITC staining in combination with propidium iodide (BD Pharmingen apoptosis detection kit I) following manufacturer instruction.
Block in DC generation is not mediated by specific killing of the DC progenitors: To determine if the decrease in DC progenitors was mediated by specific killing, CD34^+ progenitor cells were cultured for a period of 6 days in the presence of SCF, Flt-3L, GM-CSF and TNF-α. At day 6, CD1a^+CD14^− and […] cells (DC progenitors) were isolated by magnetic cell sorting (Miltenyi). Purified populations were cultured for an additional 2 days in the presence of GM-CSF and TNF-α with or without ACTIMID™ (1 μM).

[2] = system: human cord blood CD45+ cells; assay: Flow cytograms of cord blood CD45+ cells cultured 14 days with IL3, IL6, G-CSF, Epo and KL; type: cell-based; conditions: 5 μg/ml
Procedure: (§1) FIGS. 9(A-F). Flow cytograms. […] Cord blood CD45+ cells were cultured for 14 days with cytokines IL3, IL6, G-CSF, Epo and KL. Percentages indicated on each cytogram indicate the percentage of the cell population expressing a particular combination of markers. A. Control, immunoglobulin (Ig). B. Control, no compound added. C. DMSO (5 μg/ml). D. Thal (5 μg/ml). E. ACTIMID™ (5 μg/ml). F. REVIMID™ (5 μg/ml). X-axis: relative intensity of CD38 (FL1-H) staining. Y-axis: relative intensity of CD19 (FL2-H) staining. See Section 6.3 for details.
as §1, with “10(A-F).” for “9(A-F).”, “CXCR5” for “CD38”, “CD34” for “CD19”

[3] = system: allogenic CD3+ T cells stimulated by CD34+-derived DC cells; assay: T cell proliferation assay (Mixed Leucocyte Reaction); type: cell-based, human; conditions: compared to DMSO control
Procedure: T cell proliferation assay: After 13 days of culture, CD34^+-derived DC cells were collected, and after treatment with mitomycin C (50 μg/ml, Sigma), used as stimulators cells for allogenic adult CD3^+ T cells purified from peripheral blood mononuclear cells (PBMCs) from healthy volunteers. CD3^+ T responder cells were used at a concentration of 5×10^4 cells/well. Stimulators cells were added in graded doses to the T cells in black 96-well flat bottom, clear bottom tissue culture plates for chemiluminescence detection. Cultures were performed in RPMI 1640 medium supplemented with 10% heat-inactivated FBS, glutamine and Penicillin-streptomycin. After 6 days of culture, cell proliferation was measured with the BrdU chemiluminescence assay (Roche, Nutley N.J.), following manufacturer instructions. Results are presented as the mean±SD obtained from triplicate cultures.

SMILES: Nc1cccc2c1C(=O)N(C1CCC(=O)NC1=O)C2=O (centres unmarked) [ACTIMID™, 4-(Amino)-2-(2,6-dioxo(3-piperidyl))-isoindoline-1,3-dione]
- level of annexin V+-PI− (early apoptosis) and annexin V+-PI+ (late apoptosis) populations [1]: no significant increase
- differentiation into B cells (CD19/CD38 staining) ([2]; FIG. 9): minor suppressive effects
- repression of CXCR5 produced by exposure to DMSO ([2]; FIG. 10): overcomes the repression
- capacity to stimulate the proliferation of T-cells ([3]; compound from day 1 to day 12): reduced capacity
- capacity to stimulate the proliferation of T-cells ([3]; compound from day 6 to day 12): comparable
